Data taken from patent US9381210B2 (Wisconsin Alumni Research Foundation, priority 2013, dated 2016).

Legend:
CML sCD34+ cells [1] = assay: Hematopoietic colony-forming assay; type: cell-based, human
Description: CD43^+ hematopoietic cells were collected from differentiated iPSC cultures using MACS and labeled with CD235a/CD41a FITC, CD45 APC and CD38 PE (BD Pharmingen). Lin^−CD45^+CD38^+ and lin^−CD45^+CD38^− subpopulations were obtained by fluorescence-activated cell sorter (FACSAria) (Vodyanik et al., 2006). Bone marrow mononuclear cells from CML patients in the chronic phase were purchased commercially (AllCells or Applied StemCells), or obtained from the patients at the University of Wisconsin Hospital and Clinics (Madison, Wis.) with approval from the University of Wisconsin Institutional Review Board. Donors had previously signed an Institutional Review Board-approved consent. Bone marrow cells from healthy donors were obtained from Cincinnati Children's Hospital Medical Center (CCHMC). Mononuclear cells were labeled with the lineage-specific markers CD2, CD3, CD14, CD15, CD16, CD19, CD20, CD24, CD41a, CD56, CD66b, and Glycophorin A (FITC-conjugated antibodies), CD34 APC (BD Pharmingen) and DAPI to exclude dead cells. Live lin^−CD34^+ cells were isolated using FACSAria (BD).
Hematopoietic clonogenic assays were performed using serum-containing StemMACS semisolid clonogenic medium (Miltenyi Biotec, CA). Colonies were scored after fourteen to 21 days of incubation.

sCD34+ cells = assay: Cell proliferation assay; type: cell-based, human; conditions: serum-free cultures without cytokines, OLFM4 300 ng/ml
Procedure: Total lin^−CD34^+, lin^−CD34^+CD38^− or lin^−CD34^+CD38^+ were plated in triplicate in 96-well plate at 10^3 cells/well. […] When specified, the 300 ng/ml OLFM4 (Acro Biosystem) or the following growth factors were added: 10 ng/ml IL3, 100 ng/ml SCF, 100 ng/ml Flt3L, 100 ng/ml IL6 and 200 ng/ml GM-CSF. Viable cell yields were determined by counting trypan blue excluding viable cells using a hemocytometer.

[2] = system: lin-CD34+ cells from CML bone marrow; assay: Xenograft of siRNA-treated CML lin-CD34+ cells; type: in vivo, Nod scid gamma (NSG) mice; conditions: four mice, 16 weeks; two out of four control siRNA animals engrafted
Procedure: Sorted lin^−CD34^+ cells from CML bone marrow were transduced with either AllStars Negative control or OLFM4 siRNA for 24 hours. Cells were then washed and transplanted into Nod scid gamma (NSG) mice at 5-10×10^3 cells. Four mice were injected with cells treated with control siRNA and four mice were injected with OLFM4 siRNA. The mice were then analyzed at 16 weeks using flow cytometry for live human CD45^+ cells in bone marrow, liver, spleen, and peripheral blood.
The cultured cells were labeled with human CD45, mouse CD45 and DAPI and sorted for live human CD45^+ mouse CD45^− cells. The sorted cells were then plated in methyl cellulose media for hematopoietic progenitor assay and RNA extracted for PCR.

CML iCD34+ cells = assay: Adhesion assay to fibronectin; type: cell-based, human; conditions: 5 μM imatinib, 24 hours
OLFM4 [3] = assay: OLFM4 expression by QPCR in CML iCD34+ cells; type: cell-based, human; conditions: CML iCD34+ cells treated with imatinib
Procedure: iPSCs-derived lin^−CD34^+CD45^+ cells and somatic CML bone marrow lin^−CD34^+ were transfected with 100 nM of either siOLFM4 or scrambled (AllStars Neg. siRNA AF 488) using HiPerfect transfection reagent according to the manufacturer's protocol (all from Qiagen). The transfection efficiency was 50-60% as evaluated by using control ALLStars Neg. siRNA AF488. As determined by QPCR performed 24 hours after transfection, the silencing efficiency was 70-75% (FIG. 9D).
RNA was isolated from the cell subpopulations using PureLink RNA mini kit (Life Technologies). cDNA synthesis was carried out using Advantage RT-for-PCR kit (Clontech). Quantitative real-time PCR analysis was performed using Gand PlatinumSYBR Green qPCR SuperMix-UDG kit (Life Technologies) and self-designed specific primers for BCR-ABL (forward […] (SEQ ID NO:1); reverse […] (SEQ ID NO:2)), OLFM4 (forward […] (SEQ ID NO:3); reverse […] (SEQ ID NO:4)) and GAPDH (forward […] (SEQ ID NO:5); reverse […] (SEQ ID NO:6)).
The reactions were run on a Mastercyclerep Realplex™ thermal cycler (Eppendorf) and expression levels were calculated by minimal cycle threshold values (Ct) normalized to the reference expression of GAPDH in each sample (Pfaffl, 2001). When specified, K562 was used as a reference. All QPCR products were analyzed on 1.2% agarose gels to confirm the specificity of detection.

CML sCD34+ cells [4] = assay: Long-term culture initiating cell assay (LTC-IC); type: cell-based, human; conditions: imatinib
Procedure: Sorted iPSC-derived lin^−CD34^+CD45^+ cells were plated in a six-well plate at 10^4 cells/well containing 5-7 day-old cultures of murine 1×10^5 M2-10B4 and OP9 stromal cells (1:1 ratio mix) in LTC-IC medium consisting of SFM supplemented with 10 μM hydrocortisone, 50 ng/ml SCF, 5 ng/ml IL3, and 50 ng/ml IL6. Cultures were maintained at 37° C. in a humidified atmosphere with 5% CO2, and fed at weekly intervals. After five weeks, cells were harvested and analyzed for CFC potential as described above. LTC-IC assay for somatic lin^−CD34^+CD45^+ cells was performed using M2-10B4 cells exactly as described in the Stem Cell Technologies protocol to be found online at stemcell.com/en/Technical-Resources/db5a9/28412_Itc_ic-H.aspx.

iCML CD34+ cells = conditions: CFSE cultures, 5 μM imatinib, four days, annexin V
Procedure: Differentiated cells were labeled with 1 μM carboxy-fluorescein diacetate succinimidyl diester (CFSE; Molecular Probes, Eugene, Oreg.) as previously described (Copland et al., 2006; Holtz et al., 2002). These cells were then incubated overnight in CSSM medium supplemented with growth factors to allow excess unbound dye to leak out of the cells. Cells cultured in the presence of 10 μg/ml mitomycin C (Sigma Aldrich) were used to establish the CFSEmax (undivided cell population). The next day, CFSE^bright cells were sorted by FACArias to exclude non-labeled and CFSE^dim populations. […] At the end of the culture period, cells were stained with CD34-APC and 7AAD for flow cytometry analysis. The percentage of cells in each generation was determined using FlowJo software (Tree Star, Ashland, Oreg.), with the position of the parent generation set on the basis of the fluorescence profile of undivided cells.

OLFM4 [5] = assay: OLFM4 expression by RT-PCR/QPCR in sCD34+ cells; type: cell-based, human; conditions: sCD34+ cells treated with G-CSF (10 ng/ml, 24 hours)

Which “reversal of the knockdown effect on CFCs by OLFM4 pretreatment” value (CML sCD34+ cells [1]; CML sCD34+ cells, OLFM4 protein 300 ng/ml) does the source give for “OLFM4: OLFM4 protein (Acro Biosystem) added to medium at 300 ng/ml; secreted glycoprotein” here?
The value was “can be reversed”.

And the “proliferation of sCD34+ cells” value (sCD34+ cells)?
Its value is “potentiates expansion”.

And the “proliferation of sCD34+ cells” value (sCD34+ cells; listed as OLFM4 protein)?
Its value is “enhanced proliferation”.

What about the “animals showing engraftment (live human CD45+ cells)” value [2] of the same molecule?
Its value is “none”.

Which “response of parental bone marrow cells to imatinib (myeloid CFC potential)” value (CML sCD34+ cells [1]; parental lin-CD34+ BM cells of the CML patient, 5 μM imatinib, 24 hours pretreatment) does the source give for Cc1ccc(NC(=O)c2ccc(CN3CCN(C)CC3)cc2)cc1Nc1nccc(-c2cccnc2)n1 [imatinib, 4-[(4-methylpiperazin-1-yl)methyl]-N-(4-methyl-3-{[4-(pyridin-3-yl)pyrimidin-2-yl]amino}phenyl)benzamide] here?
Its value is “sensitivity”.

What about the adhesion to fibronectin (CML iCD34+ cells) of the same molecule?
Its adhesion to fibronectin is “partially restored”.

What about the “OLFM4 expression (QPCR)” value (OLFM4 [3]) of the same molecule?
Its value is “augmentation of OLFM4 expression”.

What about the LTC-ICs (CML sCD34+ cells [4]) of the same molecule?
Its LTC-ICs is “little effect”.

What about the “apoptosis in more mature iCD34dim and iCD34- cells” value (iCML CD34+ cells) of the same molecule?
The value was “substantial increase in apoptosis”.

What about the “apoptosis in most primitive iCD34bright cells” value (iCML CD34+ cells) of the same molecule?
The value was “resistant to imatinib-induced apoptosis”.

B1: G-CSF: cytokine used at 10 ng/ml to induce OLFM4 expression in sCD34+ cells (protein, UniProt P09919 31-207, looked up)
Granulocyte …: TPLGPASSLPQSFLLKCLEQVRKIQGDGAALQEKLVSECATYKLCHPEELVLLGHSLGIPWAPLSSCPSQALQLAGCLSQLHSGLFLYQGLLQALEGISPELGPTLDTLQLDVADFATTIWQQMEELGMAPALQPTQGAMPAFASAFQRRAGGVLVASHLQSFLEVSYRVLRHLAQP
Which OLFM4 expression (OLFM4 [5]) does the source give for B1 here?
Its OLFM4 expression is “rapidly induced”.
